Measurements as given in patent US20260226084A1, “DUAL RAF AND TUBULIN INHIBITORS AND METHODS OF USE THEREOF” (Deciphera Pharmaceuticals, LLC, priority 2023, published 2026).
Like-named read-outs stand apart in the source and are kept apart here.

What was measured:
[1] = molecular target: T1, B-Raf kinase (SEQ ID NO: 1) (Homo sapiens, UniProt P15056); assay: Biochemical Assay for B-Raf (coupled pyruvate kinase/lactate dehydrogenase assay); settings: 1 mM ATP; read-out: BRAF (inhibition of biochemical activity, IC50)
T1 construct: GST (N); purchased Sigma
T1 sequence (P15056 416-766): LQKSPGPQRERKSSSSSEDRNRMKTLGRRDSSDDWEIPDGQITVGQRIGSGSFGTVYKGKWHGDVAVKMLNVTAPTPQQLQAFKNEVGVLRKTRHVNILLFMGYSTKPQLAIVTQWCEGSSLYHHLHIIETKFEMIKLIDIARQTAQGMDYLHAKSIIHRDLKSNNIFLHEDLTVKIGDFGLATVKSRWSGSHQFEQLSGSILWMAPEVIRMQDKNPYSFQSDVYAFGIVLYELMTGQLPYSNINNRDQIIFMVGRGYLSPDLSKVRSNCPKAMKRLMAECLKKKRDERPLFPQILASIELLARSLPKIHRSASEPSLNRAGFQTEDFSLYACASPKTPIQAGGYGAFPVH

[2] = molecular target: T2, C-Raf kinase (SEQ ID NO: 2) (Homo sapiens, UniProt P04049, Y340D/Y341D); assay: Biochemical Assay for C-Raf (coupled pyruvate kinase/lactate dehydrogenase assay); settings: 1 mM ATP; read-out: CRAF (inhibition of biochemical activity, IC50)
T2 construct: C-Raf residues 306-end; Y340D, Y341D with; GST (N); purchased Sigma
T2 sequence (P04049 307-648 Y340D/Y341D): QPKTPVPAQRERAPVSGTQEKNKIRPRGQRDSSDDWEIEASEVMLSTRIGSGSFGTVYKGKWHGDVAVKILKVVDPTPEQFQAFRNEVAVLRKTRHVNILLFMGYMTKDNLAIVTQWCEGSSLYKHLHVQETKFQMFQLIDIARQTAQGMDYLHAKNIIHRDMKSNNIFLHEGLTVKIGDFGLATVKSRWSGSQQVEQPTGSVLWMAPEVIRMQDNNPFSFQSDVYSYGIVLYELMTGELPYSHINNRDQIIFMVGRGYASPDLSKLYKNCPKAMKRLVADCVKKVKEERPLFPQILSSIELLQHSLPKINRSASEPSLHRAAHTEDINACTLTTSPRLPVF

[3] = system: MiaPaca-2 cells; assay: MiaPaca-2 Cell Proliferation Assay; format: cell-based; settings: Table 2, read-out: Inhibition of cell proliferation in MiaPaca-2 (IC50 class)
Method: Miapaca-2 cells (catalog #CRL-1420) are obtained from the American Type Culture Collect (ATTC, Manassas, VA). Briefly, cells were grown in DMVEM supplemented with 10 characterized fetal bovine serum (Invitrogen, Carlsbad, CA), 2.5% New Zealand sourced horse serum and 1 Penicillin/Streptomycin/L-Glutamine at 37° C., 5 CO2, and 95% humidity. Cells are expanded until reaching 70-95% confluency at which point they are sub-cultured or harvested for assay use. A serial dilution of test compound is dispensed into a 96-well black clear bottom plate in triplicate. Three thousand cells are added per well in 200 μL complete growth medium in the 96-well plate. Plates are incubated for 67 to 72 h at 37° C., 5% CO2, and 95% humidity. At the end of the incubation, 40 μL of a 440 μM solution of resazurin (Sigma, St. Louis, MO) in PBS is added to each well of the plate and plates are incubated for an additional 5 to 6 h at 37° C., 5% CO2, and 95% humidity. Plates are read on a Synergy2 or equivalent reader (Biotek, Winooski VT) using an excitation of 540 nm and an emission of 600 nm. Data is analyzed using Prism software (Graphpad, San Diego, CA) to calculate IC50 values.

[4] = system: HCT-116 cells; assay: HCT-116 Cell Proliferation Assay; format: cell-based; settings: Homo sapiens, HCT-116, HCT-116 cells; Table 2; read-out: Inhibition of cell proliferation in HCT-116 (IC50 class)
Method: HCT-116 cells (catalog #CCL-247) are obtained from the American Type Culture Collect (ATCC, Manassas, VA). Briefly, cells are grown in McCoy's 5A supplemented with 10% characterized fetal bovine serum (Invitrogen, Carlsbad, CA) and 1% Penicillin/Streptomycin/L-Glutamine at 37° C., 5% CO2, and 95% humidity. Cells are expanded until reaching 70-95% confluency at which point they are subcultured or harvested for assay use. A serial dilution of test compound is dispensed into a 384-well black clear bottom plate in triplicate. 375 cells are added per well in 50 μL complete growth medium in the 384-well plate. Plates are incubated for 67 to 72 hours at 37° C., 5% CO2, and 95% humidity. At the end of the incubation, 40 μL of a […] solution of resazurin (Sigma, St. Louis, MO) in PBS is added to each well of the plate and plates are incubated for an additional 4 to 5 h at 37° C., 5% CO2, and 95% humidity. Plates are read on a Synergy2 or equivalent reader (Biotek, Winooski, VT) using an excitation of 540 nm and an emission of 600 nm. Data is analyzed using Prism software (Graphpad, San Diego, CA) to calculate IC50 values.

[5] = system: HPAF-II cells; assay: HPAF-II Cell Proliferation Assay; format: cell-based; settings: Homo sapiens, HPAF-II, HPAF-II cells; Table 2; read-out: Inhibition of cell proliferation in HPAF-II (IC50 class)
Method: (§1) HPAF-II cells (catalog #CRL-1997) are obtained from the American Type Culture Collect (ATCC, Manassas, VA). Briefly, cells are grown in Minimum Essential Media supplemented with 10% characterized fetal bovine serum (Invitrogen, Carlsbad, CA) and 1% Penicillin/Streptomycin/L-Glutamine at 37° C., 5% CO2, and 95% humidity. Cells are expanded until reaching 70-95% confluency at which point they are sub-cultured or harvested for assay use. A serial dilution of test compound is dispensed into a 384-well black clear bottom plate in triplicate. 750 cells are added per well in 50 μL complete growth medium in the 384-well plate. Plates are incubated for 115 to 120 hours at 37° C., 5% CO2, and 95% humidity. At the end of the incubation, 40 μL of a 440 μM solution of resazurin (Sigma, St. Louis, MO) in PBS is added to each well of the plate and plates are incubated for an additional 18 to 24 hours at 37° C., 5% CO2, and 95% humidity. Plates are read on a Synergy2 or equivalent reader (Biotek, Winooski, VT) using an excitation of 540 nm and an emission of 600 nm. Data is analyzed using Prism software (Graphpad, San Diego, CA) to calculate IC50 values.

[6] = system: Pa16c cells; assay: Pa16c Cell Proliferation Assay; format: cell-based; settings: Table 2, read-out: Inhibition of cell proliferation in Pa16c (IC50 class)
Method: as §1, with “Pa16c” for “HPAF-II”, “cells” for “cells (catalog #CRL-1997)”, “Dr. Channing Der, University of North Carolina at Chapel Hill.” for “the American Type Culture Collect (ATCC, Manassas, VA).”, “Dulbecco's Modified Eagle Medium” for “Minimum Essential Media”, “67” for “115”, “72 h” for “120 hours”

[7] = Homo sapiens, MIA PaCa-2, MiaPaca-2 cells

Compound | IC50 [1] [nM] | IC50 [2] [nM] | IC50 [3, 7] [nM] | IC50 [4] [nM] | IC50 [5] [nM] | IC50 [6] [nM] | IC50 ([3]; MiaPaca-2 cells) [nM]
Cc1ccc(NC(=O)c2cc(C(F)(F)F)cnn2)cc1-c1ccnc(-c2ccnc(N)c2)c1 [Example 2, N-(3-(2′-amino-[2,4′-bipyridin]-4-yl)-4-methylphenyl)-5-(trifluoromethyl)pyridazine-3-carboxamide] | < 100 | < 100 | < 100 | < 100 | < 100 | < 100 | 
Cc1ccc(NC(=O)c2cc(C(F)(F)F)cnn2)cc1-c1ccnc(-c2ccnc(NC(=O)C3(F)CC3)c2)c1 [Example 4, N-(3-(2′-(1-fluorocyclopropane-1-carboxamido)-[2,4′-bipyridin]-4-yl)-4-methylphenyl)-5-(trifluoromethyl)pyridazine-3-carboxamide] | < 100 | < 100 | 100 to 500 | 100 to 500 | 100 to 500 | 100 to 500 | 
Cc1ccc(NC(=O)c2cncc(C(F)(F)F)n2)cc1-c1cncc(-c2ccnc(NC(=O)C3CC3)c2)c1 [Example 5] | < 100 | < 100 | 1000 to 10000 | 1000 to 10000 | 1000 to 10000 | 1000 to 10000 | 
Cc1ccc(NC(=O)c2ccc(C(F)F)nc2)cc1-c1ccnc(-c2ccnc(NC(=O)C3CC3)c2)c1 [Example 25] | < 100 | < 100 | 500 to 1000 | 100 to 500 |  |  | 
COC(=O)Nc1cc(-c2nccc(-c3cc(NC(=O)c4ccc(C(F)(F)F)nc4)ccc3C)n2)ccn1 [Example 30] | 1000 to 10000 | < 100 |  |  |  |  | 1000 to 10000
Cc1ccc(NC(=O)c2ccc(C(F)(F)F)nc2)cc1-c1cncc(-c2cc(N)ncn2)c1 [Example 73] | 500 to 1000 | 500 to 1000 | 1000 to 10000 |  |  |  | 
COC(=O)Nc1cc(-c2cc(-c3cc(NC(=O)c4ccc(C(F)(F)F)nc4)ccc3C)cc(OCCO)n2)ccn1 [Example 77] | < 100 | < 100 |  |  |  |  | 1000 to 10000
Cc1ccc(NC(=O)c2cc(C(F)(F)F)cnn2)cc1-c1ccnc(-c2cnsc2)c1 [Example 132] |  |  | 100 to 500 | 100 to 500 | 100 to 500 | 100 to 500 | 
Cc1ccc(NC(=O)c2cc(C#N)cnn2)cc1-c1cc(N[C@H](C)CO)nc(-c2cn[nH]c2)c1 [Example 152] | 100 to 500 | 100 to 500 | < 100 | 100 to 500 | 500 to 1000 |  | 
Cc1ccc(NC(=O)c2cc(C(F)(F)F)cnn2)cc1-c1cc(N[C@H](C)CO)nc(-c2c[nH]nc2N)c1 [Example 153] | 100 to 500 | < 100 | 100 to 500 | 100 to 500 | 1000 to 10000 |  | 

Further lines, with some results ahead:

IC50 [1] [nM] | IC50 [2] [nM] | IC50 [3, 7] [nM] | IC50 [4] [nM] | Compound | IC50 [5] [nM] | IC50 [6] [nM] | IC50 ([3]; MiaPaca-2 cells) [nM]
< 100 | < 100 | < 100 | < 100 | CC(=O)Nc1cc(-c2cc(-c3cc(NC(=O)c4ccc(C(F)F)nc4)ccc3C)ccn2)ccn1 [Example 1, N-(3-(2′-acetamido-[2,4′-bipyridin]-4-yl)-4-methylphenyl)-6-(difluoromethyl)nicotinamide] | < 100 | < 100 | 
100 to 500 | < 100 | < 100 | < 100 | COC(=O)Nc1cc(-c2cncc(-c3cc(NC(=O)c4ccc(C(F)(F)F)nc4)c(F)cc3C)c2)ccn1 [Example 3, methyl (5-(4-fluoro-2-methyl-5-(6-(trifluoromethyl)nicotinamido)phenyl)-[3,4′-bipyridin]-2′-yl)carbamate] |  |  | 
< 100 | < 100 | 1000 to 10000 | 500 to 1000 | COC(=O)Nc1cc(-c2ccnc(-c3cc(NC(=O)c4ccc(C(F)(F)F)nc4)ccc3C)n2)ccn1 [Example 6] | 1000 to 10000 | 1000 to 10000 | 
1000 to 10000 | 1000 to 10000 | 1000 to 10000 |  | CC(=O)Nc1cc(-c2cc(-c3cc(NC(=O)c4ccc(C(F)(F)F)nc4)ccc3C)nn(C)c2=O)ccn1 [Example 12] |  |  | 
100 to 500 | < 100 | 100 to 500 |  | CC(=O)Nc1cc(-c2nccc(-c3cc(NC(=O)c4ccc(C(F)F)nc4)ccc3C)n2)ccn1 [Example 14] |  |  | 
1000 to 10000 | 500 to 1000 | < 100 |  | COC(=O)Nc1cc(-c2cc(-c3cc(NC(=O)c4ccc(C(F)(F)F)nc4)c(F)cc3C)nc(C)n2)ccn1 [Example 21] |  |  | 
100 to 500 | < 100 | 1000 to 10000 |  | CC(=O)Nc1cc(-c2cc(-c3cc(NC(=O)c4ccc(C(F)(F)F)nc4)ccc3C)cn(C)c2=O)ccn1 [Example 28] |  |  | 
1000 to 10000 | 1000 to 10000 | 1000 to 10000 |  | CC(=O)Nc1cc(-c2cc(-c3cc(NC(=O)c4ccc(C(F)(F)F)nc4)ccc3C)cn(CCO)c2=O)ccn1 [Example 29] |  |  | 
1000 to 10000 | 100 to 500 | 1000 to 10000 |  | COC(=O)Nc1cc(-c2cc(-c3cc(NC(=O)c4ccc(C(F)(F)F)nc4)cnc3C)ccn2)ccn1 [Example 31] |  |  | 
100 to 500 | < 100 | 500 to 1000 |  | COC(=O)Nc1cc(-c2cccc(-c3cc(NC(=O)c4ccc(C(F)(F)F)nc4)cnc3C)c2)ccn1 [Example 32] |  |  | 
500 to 1000 | < 100 | 1000 to 10000 |  | COC(=O)Nc1cc(-c2cccc(-c3cc(NC(=O)c4ccc(C(F)(F)F)nc4)cnc3C)c2)ncn1 [Example 33] |  |  | 
100 to 500 | < 100 | 100 to 500 |  | COC(=O)Nc1cc(-c2cncc(-c3cc(NC(=O)c4ccc(C(F)(F)F)nc4)ccc3C)c2)ccn1 [Example 74] |  |  | 
100 to 500 | < 100 | 500 to 1000 |  | CC(=O)Nc1cc(-c2cccc(-c3cc(NC(=O)c4ccc(C(F)F)nc4)ccc3C)n2)ccn1 [Example 85] |  |  | 
1000 to 10000 | 100 to 500 | 1000 to 10000 | 1000 to 10000 | COCC(=O)Nc1cc(-c2cncc(-c3cc(NC(=O)c4ccc(C(F)F)nc4)ccc3C)n2)ccn1 [Example 89] |  |  | 
